Experimental data as given in patent US20230041996A1, “CALCIUM-SENSING RECEPTOR AGONIST COMPOUND AND APPLICATION THEREOF” (BEIJING TUO JIE BIOPHARMACEUTICAL CO. LTD., priority 2019, published 2023).
Like-named read-outs stand apart in the source and are kept apart here. Square brackets hold non-standard residues; d marks the D form. Peptide text beside a SMILES is read from it. * marks the point of attachment. Cys(free,S-linked) = N[C@@H](CS*)C(=O)O; d2Thi = N[C@H](Cc1cccs1)C(=O)O; dAbu = CC[C@@H](N)C(=O)O

Columns and labels:
Type in all cases: cell-based
human red blood cells = test: Hemolytic effect on human red blood cells in vitro (absorbance at 540 nm); conditions: 100 μg/mL in PBS, 37° C., 1 h, FIG. 1
Experimental: To evaluate the hemolytic effect of the compounds disclosed herein on red blood cells in vitro, human whole blood (100 μL) was taken and mixed with a phosphate buffer. The mixture was centrifuged at 4° C. for 10 min and the supernatant was discarded. The red blood cells were resuspended in PBS buffer (900 μL) and centrifuged at 4° C. for 10 min with the supernatant discarded, and the procedures above were repeated once. The test example compounds were dissolved in 1×PBS buffer to a final concentration of 100 μg/mL. The red blood cells were resuspended in solutions of various test example compounds, an octylphenoxy poly(ethyleneoxy)ethanol-100 solution or PBS buffer, and incubated at 37° C. for 1 h. After incubation, the cells were centrifuged at 4° C. for 10 min and the supernatant (100 μL) was pipetted and transferred to a 96-well plate. The absorbance at 540 nm was detected for evaluating the hemolytic effect of the test example compounds on red blood cells in vitro.

[1] = tested on: rat peritoneal mast cells; test: In vitro histamine release in rat peritoneal mast cells (histamine ELISA); conditions: for Relative fold of histamine release in vitro: test compound final concentration 10 μM, 15 min at 37° C., relative to PBS buffer (1.00); for histamine release levels in rat peritoneal mast cells in vitro relative to etelcalcetide: 10 μM, comparison with etelcalcetide
In short: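 Rat peritoneal mast cells, washed into HBSS + 25 mM HEPES + 1 mM CaCl2 (pH 7.4), were exposed to test compounds at 10 μM final, 48/80 at 4 μg/mL or vehicle for 15 min at 37° C. Histamine released into the supernatant was quantified by ELISA.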

[2] = target: T1, human calcium-sensing receptor (CaSR) (Homo sapiens, UniProt P41180); test: Agonist activity on human calcium-sensing receptor (IP-One HTRF in stably transfected HEK293/CaSR cells)
T1 construct: host or cells: HEK293
T1 sequence (P41180 20-1078): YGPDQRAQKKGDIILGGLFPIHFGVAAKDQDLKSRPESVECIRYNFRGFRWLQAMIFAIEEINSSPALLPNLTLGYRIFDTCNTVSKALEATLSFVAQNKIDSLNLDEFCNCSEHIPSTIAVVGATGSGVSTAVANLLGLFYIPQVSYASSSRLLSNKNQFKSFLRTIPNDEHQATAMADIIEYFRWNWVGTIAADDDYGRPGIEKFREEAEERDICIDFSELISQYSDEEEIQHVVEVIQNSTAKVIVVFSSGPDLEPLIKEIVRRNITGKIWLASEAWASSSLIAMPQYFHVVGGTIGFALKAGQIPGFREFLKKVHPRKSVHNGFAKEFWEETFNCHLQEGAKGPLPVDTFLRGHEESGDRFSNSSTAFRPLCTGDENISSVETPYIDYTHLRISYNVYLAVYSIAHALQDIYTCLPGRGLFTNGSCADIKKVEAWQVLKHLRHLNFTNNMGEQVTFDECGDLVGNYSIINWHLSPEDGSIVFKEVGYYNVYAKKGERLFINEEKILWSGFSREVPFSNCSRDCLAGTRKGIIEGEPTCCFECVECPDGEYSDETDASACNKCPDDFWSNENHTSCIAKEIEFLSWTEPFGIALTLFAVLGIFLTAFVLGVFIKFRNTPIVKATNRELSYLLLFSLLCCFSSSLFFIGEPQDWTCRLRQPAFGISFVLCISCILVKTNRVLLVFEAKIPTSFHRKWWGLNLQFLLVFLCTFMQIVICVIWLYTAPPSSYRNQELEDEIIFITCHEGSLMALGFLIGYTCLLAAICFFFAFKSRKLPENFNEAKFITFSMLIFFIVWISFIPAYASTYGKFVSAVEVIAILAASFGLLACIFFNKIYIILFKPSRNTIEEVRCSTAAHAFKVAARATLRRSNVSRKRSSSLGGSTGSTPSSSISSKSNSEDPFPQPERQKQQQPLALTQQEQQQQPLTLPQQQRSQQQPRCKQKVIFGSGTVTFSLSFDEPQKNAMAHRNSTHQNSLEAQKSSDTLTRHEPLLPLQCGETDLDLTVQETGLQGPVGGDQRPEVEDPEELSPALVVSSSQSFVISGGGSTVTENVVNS
In short: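 HEK293 cells stably expressing CaSR stimulated 60 min at 37 °C with compounds in buffer containing 1.2 mM CaCl2, 0.5 mM MgCl2 and 50 mM LiCl. IP-One accumulation measured by HTRF (665/620 nm ratio); EC50 from four-parameter fit.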

[3] = HEK293/CaSR cells, IP-One production, 60 min at 37° C., CaCl2 1.2 mM, read-out: EC50 for calcium-sensing receptor

Row | Structure (SMILES) | hemolytic effect on red blood cells (human red blood cells) | Relative fold of histamine release in vitro [1] | EC50 [2, 3] [µM] | histamine release levels in rat peritoneal mast cells in vitro relative to etelcalcetide [1] | EC50 [2] [µM]
1 | CC(=O)N[C@H](CSSC[C@H](N)C(=O)O)C(=O)N[C@H](CCCNC(=N)N)C(=O)N[C@H](CCCNC(=N)N)C(=O)N[C@H](Cc1cccs1)C(=O)N[C@H](CCCNC(=N)N)C(=O)N[C@H](C)C(=O)N[C@H](CCCNC(=N)N)C(N)=O [Compound 13, Ac-c(C)-r-r-(D-2-Thi)-r-a-r-NH2] (Ac-[dC](Cys(free,S-linked))[dR][dR][d2Thi][dR][dA][dR]-NH2) | no significant hemolytic effect | 2.38 | 1.21 |  | 
2 | CC[C@@H](NC(=O)[C@@H](CCCNC(=N)N)NC(=O)[C@@H](CCCNC(=N)N)NC(=O)[C@@H](CSSC[C@H](N)C(=O)O)NC(C)=O)C(=O)N[C@H](CCCNC(=N)N)C(=O)N[C@H](CO)C(=O)N[C@H](CCCNC(=N)N)C(N)=O [Compound 31, Ac-c(C)-r-r-(D-Abu)-r-s-r-NH2] (Ac-[dC](Cys(free,S-linked))[dR][dR][dAbu][dR][dS][dR]-NH2) | no significant hemolytic effect | 1.29 | 5.93 | reduction in histamine release levels | 
3 | CC[C@@H](NC(=O)[C@@H](CCCNC(=N)N)NC(=O)[C@@H](CCCNC(=N)N)NC(=O)[C@@H](CSSC[C@H](N)C(=O)O)NC(C)=O)C(=O)N[C@H](CCCNC(=N)N)C(=O)N[C@H](C)C(=O)N[C@H](CCCNC(=N)N)C(N)=O [Compound 17, Ac-c(C)-r-r-(D-Abu)-r-a-r-NH2] (Ac-[dC](Cys(free,S-linked))[dR][dR][dAbu][dR][dA][dR]-NH2) | no significant hemolytic effect | 0.97 |  | reduction in histamine release levels | 6.28
